Literature values, collected in article PMC3470887, “Protegrin-1 Inhibits Dengue NS2B-NS3 Serine Protease and Viral Replication in MK2 Cells” (Journal of Biomedicine and Biotechnology, 2012).

Conditions: mouse, iv; cited from earlier work

CC(C)C[C@H](NC(=O)[C@H](CCCNC(=N)N)NC(=O)CNC(=O)CNC(=O)[C@@H](N)CCCNC(=N)N)C(=O)N[C@H]1CSSC[C@@H](C(=O)N[C@H](C(=O)NCC(=O)N[C@@H](CCCNC(=N)N)C(N)=O)C(C)C)NC(=O)[C@H](C(C)C)NC(=O)[C@@H]2CSSC[C@H](NC(=O)[C@H](Cc3ccc(O)cc3)NC1=O)C(=O)N[C@@H](CCCNC(=N)N)C(=O)N[C@@H](CCCNC(=N)N)C(=O)N[C@@H](CCCNC(=N)N)C(=O)N[C@@H](Cc1ccccc1)C(=O)N2 [PG-1]
dose with low in vivo toxicity: up to 8 mg/kg
